Experimental data from paper PMC3510080, “Identification of Compounds with Anti-Proliferative Activity against Trypanosoma brucei brucei Strain 427 by a Whole Cell Viability Based HTS Campaign” (PLoS Neglected Tropical Diseases, 2012).
Blank lines part the entries; values can stand above or below the compound they belong to.

Tests used:
[1] = test system: L. donovani strain MHOM/ET/67/L82 axenic amastigotes; assay: L. donovani axenic amastigote fluorescence assay; SI versus L6 cells; format: cell-based, Leishmania donovani
Protocol: (§1) L6 rat skeletal myoblasts, [29] were purchased from the American Type Culture Collection (ATCC, Rockville, MD, USA; ATCC number CRL 1458). This cell line was used for cytotoxicity testing to calculate an SI against T.b. rhodesiense and screened alongside the T.b. rhodesiense, P. falciparum, T. cruzi and L. donovani assays. L6 were also the host cells for the T. cruzi assay. Assays were performed in 96-well microtiter plates, each well containing 100 µl of RPMI 1640 medium supplemented with 1% L-glutamine (200 mM), 10% FCS, and 4000 L6 cells. Serial drug dilutions of eleven 3-fold dilution steps covering a range from 100 to 0.002 µg/ml were prepared. After 70 hours of incubation the plates were inspected under an inverted microscope to assure growth of the controls and sterile conditions. Ten µl of resazurin solution (resazurin, 12.5 mg in 100 ml double-distilled water) was then added to each well and the plates incubated for another 2 hours. Then the plates were read with a Spectramax Gemini XS microplate fluorometer (Molecular Devices Cooperation, Sunnyvale, CA, USA) using an excitation wavelength of 536 nm and an emission wavelength of 588 nm. Data was analysed using the microplate reader software Softmax Pro (Molecular Devices, USA). Podophyllotoxin was used as a positive control in the assay.
Amastigotes of L. donovani strain MHOM/ET/67/L82 were grown in axenic culture at 37°C in SM medium at pH 5.4 supplemented with 10% heat-inactivated FCS under an atmosphere of 5% CO2 in air. One hundred µl of culture medium containing 10^5 amastigotes from axenic culture with or without a serial drug dilution were seeded in 96-well microtitre plates. Serial drug dilutions of eleven 3-fold dilution steps covering a range from 100 to 0.002 µg/ml were prepared. After 70 hours of incubation the plates were inspected under an inverted microscope to assure growth of the controls and sterile conditions. Ten µl of resazurin solution (12.5 mg resazurin dissolved in 100 ml distilled water) were then added to each well and the plates incubated for another 2 hours. The plates were then read with a Spectramax Gemini XS microplate fluorometer (Molecular Devices, USA) using an excitation wavelength of 536 nm and an emission wavelength of 588 nm. Data was analysed using the software Softmax Pro (Molecular Devices, USA). Decrease of fluorescence ( = inhibition) was expressed as percentage of the fluorescence of control cultures and plotted against the drug concentrations. From the sigmoidal inhibition curves the IC50 values were calculated. Miltefosine served as a known drug control in this assay.

[2] = test system: P. falciparum K1 strain; assay: P. falciparum 3H-hypoxanthine incorporation assay; SI versus L6 cells; format: cell-based, Plasmodium falciparum; conditions: Plasmodium falciparum, K1, L6, read-out: Reference Compound Activity P.F (IC50)
Protocol: as §1
Compounds dissolved in DMSO at 10 mg/ml were added to parasite cultures incubated in RPMI 1640 medium without hypoxanthine, supplemented with HEPES (5.94 g/l), NaHCO3 (2.1 g/l), neomycin (100 U/ml), Albumax (5 g/l) and washed human A^+ red blood cells at 2.5% haematocrit (0.3% parasitaemia). Serial drug dilutions of eleven 3-fold dilution steps covering a range from 100 to 0.002 µg/ml were prepared. The 96-well plates were incubated in a humidified atmosphere at 37°C; 4% CO2, 3% O2, 93% N2. After 48 hours, 50 µl of ^3H-hypoxanthine ( = 0.5 µCi) was added to each well of the plate. The plates were incubated for a further 24 hours under the same conditions. The plates were then harvested with a Betaplate cell harvester (Wallac, Zurich, Switzerland), and the red blood cells transferred onto a glass fibre filter then washed with distilled water. The dried filters were inserted into a plastic foil with 10 ml of scintillation fluid, and counted in a Betaplate liquid scintillation counter (Wallac, Zurich, Switzerland). IC50 values were calculated from sigmoidal inhibition curves using Microsoft Excel.

[3] = test system: T.b. rhodesiense STIB900; assay: T. b. rhodesiense STIB900 assay (resazurin); SI versus L6 cells; format: cell-based, Trypanosoma brucei rhodesiense
Protocol: as §1
T.b. rhodesiense STIB900 stock was isolated in 1982 from a human patient in Tanzania and after several mouse passages cloned and adapted to axenic culture conditions. Fifty microliters of Minimum Essential Medium (MEM) supplemented with 25 mM HEPES, 1 g/l additional glucose, 1% MEM non-essential amino acids (100×), 0.2 mM 2-mercaptoethanol, 1 mM Na-pyruvate and 15% heat inactivated horse serum was added to each well of a 96-well microtiter plate. Serial drug dilutions of eleven 3-fold dilution steps covering a range from 100 to 0.002 µg/ml were prepared. Four thousand bloodstream form cells of T.b. rhodesiense STIB 900 in 50 µl were added to each well and the plate incubated at 37°C under a 5% CO2 atmosphere for 70 hours. Ten microlitres of resazurin solution (resazurin, 12.5 mg in 100 ml double-distilled water) was then added to each well and incubation continued for a further 2–4 hours. Plates were then read with a Spectramax Gemini XS microplate fluorometer (Molecular Devices, USA) using an excitation wavelength of 536 nm and an emission wavelength of 588 nm. Data was analysed using the microplate reader software Softmax Pro (Molecular Devices, USA). The drug melarsoprol was a positive control against T.b. rhodesiense.

[4] = test system: T. cruzi Tulahuen strain C2C4; assay: T. cruzi Tulahuen strain C2C4 β-galactosidase assay; SI versus L6 cells; format: cell-based, Trypanosoma cruzi
Protocol: as §1
Rat skeletal myoblasts (L6 cells) were seeded in 96-well microtitre plates at 2000 cells/well in 100 µl RPMI 1640 medium with 10% FCS and 2 mM l-glutamine. After 24 hours the medium was removed and replaced by 100 µl per well containing 5000 trypomastigote forms of T. cruzi Tulahuen strain C2C4 containing the β-galactosidase (Lac Z) gene. After 48 hours the medium was removed from the wells and replaced by 100 µl fresh medium with or without a serial drug dilution of eleven 3-fold dilution steps covering a range from 100 to 0.002 µg/ml. After 96 hours of incubation the plates were inspected under an inverted microscope to assure growth of the controls and sterility. Then 50 µl of the substrate, containing chlorophenol red-β-D-galactopyranoside (CPRG) and Nonidet, was added to all wells. A colour reaction developed within 2–6 hours that could be read photometrically at 540 nm. Data were transferred into the graphic programme Softmax Pro (Molecular Devices, USA), which calculated IC50 values. The drug benznidazole was used as a positive standard in this assay.

IC50 ([1]; Leishmania donovani, L6, known drug control, read-out: Reference Compound Activity L.D (IC50)): 365 ± 93.7 nM
SMILES: CCCCCCCCCCCCCCCCOP(=O)([O-])OCC[N+](C)(C)C [Miltefosine, reference compound]
Selectivity Index L.D ([1]; relative to L6 cells): 392

IC50 [2]: 164 ± 24.7 nM
SMILES: CCN(CC)CCCC(C)Nc1ccnc2cc(Cl)ccc12 (stereo not shown) [Chloroquine, reference compound]

SMILES: Nc1nc(N)nc(Nc2ccc([As]3SCC(CO)S3)cc2)n1 (stereo not shown) [Melarsoprol, melarsoprol, reference compound]
IC50 ([3]; Trypanosoma brucei, L6, read-out: Reference Compound Activity T.R (IC50)): 6.28 ± 1.78 nM | Selectivity Index T.R ([3]; relative to L6 cells): 2915

SMILES: O=C(Cn1ccnc1[N+](=O)[O-])NCc1ccccc1 [Benznidazole, benznidazole, reference compound]
IC50 ([4]; Trypanosoma cruzi, TULAHUEN, L6, positive standard, read-out: Reference Compound Activity T.C (IC50)): 1680 ± 1930 nM | Selectivity Index T.C ([4]; relative to L6 cells): >206
